No end group written: not given here.
Key:
Format in all cases: in vivo
male ddy mice [1] = assay: Tail suspension test; conditions: for Immobile Time: control 99.0; for Immobile Time (second): 30 minutes before the test, control 88.9, *P<0.05 vs Control
Method: A tail suspension test used for screening an antidepressant was conducted. When a mouse is hung by fixing its tail and thus put under inescapable conditions, it is believed that the mouse first tries to escape and moves but becomes immobile by despair with the time. On the other hand, in a mouse treated with an antidepressant, the time of escaping behavior increases, and the immobile time decreases. That is, when the immobile time decreases, the drug is evaluated to have an antidepressive effect.
The WPH synthesized in Production Example 1 was administered at a dose of 1 mg, 10 mg or 100 mg per 1 kg body weight to male ddy mice 30 minutes before the test, and 30 minutes later, the mice were hung by fixing their tails to conduct the test (WPH administration group, n=9-11). For six minutes after starting, the time with immobile behavior was recorded.
Moreover, as a control, the same test was conducted using male ddy mice to which the peptide as the test substance was not administered (control group, n=9-11).
From the obtained results, the times (second) with immobile behavior were calculated as an indicator of the antidepressive activity.
The peptide NLPPLT synthesized in Production Example 2 was administered at a dose of 10 μg or 30 μg per 1 kg body weight to male ddy mice 30 minutes before the test, and 30 minutes later, the mice were hung by fixing their tails to conduct the test (peptide NLPPLT administration group, n=5-6). For six minutes after starting, the time with immobile behavior was recorded.
Moreover, as a control, the same test was conducted using male ddy mice to which the peptide as the test substance was not administered (control group, n=5-6). […]

male ddy mice [2] = assay: Elevated plus maze test
Excerpt: An elevated plus maze having a plus shape in which two flat plates (arms) of 25 cm×5 cm were crossed was placed at a height of 50 cm from the floor. One type of the arms is closed arms having transparent walls with a height of 15 cm, and a mouse can walk safely without fear of falling. The other arms are open arms without such walls, and the sides are open. […] Through anxiolytic treatment of a mouse, however, the time of stay in the open arms tends to be longer. Thus, in a confirmation test of an anxiolytic action, the anxiolytic activity becomes higher as the time of stay of a mouse in the open arms is longer or as the number of entries is higher. […]
The peptide NLPPLT synthesized in Production Example 2 was administered at a dose of 3 μg or 10 μg per 1 kg body weight to male ddy mice 30 minutes before the test, and 30 minutes later, each mouse was put on the central platform where the open arms crossed the closed arms to conduct the test (peptide NLPPLT administration group, n=6). For five minutes after starting, the total time of stay of the mouse on the open arms (time in open arms), the number of entries into the open arms (visit to open arms) and the total number of entries into the arms (total visits) were recorded.
Moreover, as a control, the same test was conducted using male ddy mice to which the peptide as the test substance was not administered (control group, n=6).
Furthermore, to examine the mechanism of action, the same test was conducted using male ddy mice to which 10 mg/kg of an antagonist of the serotonin 5-HT1A receptor, WAY100135 (manufactured by Tocris Bioscience) was orally administered in addition to 10 μg/kg body weight of the peptide NLPPLT synthesized in Production Example 2 (peptide NLPPLT+serotonin antagonist administration group, n=5).
From the obtained results, the proportions (%) of the time of stay on the open arms and the proportions (%) of the number of entries into the open arms were calculated as indicators of the anxiolytic activity, and the differences with a statistical significance were examined by the Tukey-Kramer method.

male ddy mice [3] = assay: Open field test; conditions: for Proportion (%) of Time of Stay in Center Circle / Proportion (%) of Number of Entries into Center Circle: 30 minutes before the test; for Proportion (%) of Time of Stay in Center Circle: control 0.3; for Proportion (%) of Number of Entries into Center Circle: control 1.5
Method: An open field test was conducted as a behavior test used for screening an antianxiety drug. […] […] Here, in this open field test, a circular field consisting of a plurality of concentric circles with a common center with different radii was used. The circle closest to the center in the field is considered as the center of the field, and the time in which a mouse placed in the center of the field stays in the center of the field is measured.
The peptide NLPPLT synthesized in Production Example 2 was administered at a dose of 10 μg, 30 μg or 100 μg per 1 kg body weight to male ddy mice 30 minutes before the test, and 30 minutes later, each mouse was put in the center of the field to conduct the test (peptide NLPPLT administration group, n=5). For five minutes after starting, the time of stay was recorded.
Moreover, as a control, the same test was conducted using male ddy mice to which the peptide as the test substance was not administered (control group, n=5-6).
From the obtained results, the proportions (%) of the time of stay were calculated as an indicator of the anxiolytic activity.

Compound | Immobile Time (male ddy mice [1]; Table 7, NBQX 10 mg/kg (i.p.) alone) | Immobile Time (second) (male ddy mice [1]; Table 6, 0.01 mg/kg) | Immobile Time (second) (male ddy mice [1]; Table 6, 0.03 mg/kg) | Immobile Time (male ddy mice [1]; Table 7, NLPPLT 0.01 mg/kg (p.o.) alone) | Antidepressive activity (time with immobile behavior compared to control) (male ddy mice [1]; conclusion in words) | Proportion (%) of Time of Stay on Open Arms (male ddy mice [2]; Table 2, peptide alone (dose not given; 10 μg/kg), control 20.9) | Proportion (%) of Number of Entries into Open Arms (male ddy mice [2]; Table 2, peptide alone (dose not given; 10 μg/kg), control 26.7) | Proportion (%) of Time of Stay on Open Arms (male ddy mice [2]; Table 3, 3 μg/kg, 30 minutes before the test, control 15.4) | Proportion (%) of Number of Entries into Open Arms (male ddy mice [2]; Table 3, 3 μg/kg, 30 minutes before the test, control 22.7) | Proportion (%) of Time of Stay on Open Arms (male ddy mice [2]; Table 3, 10 μg/kg, 30 minutes before the test, control 15.4) | Proportion (%) of Number of Entries into Open Arms (male ddy mice [2]; Table 3, 10 μg/kg, 30 minutes before the test, control 22.7) | Anxiolytic activity (time of stay on / entries into open arms compared to control) (male ddy mice [2]; conclusion in words) | Proportion (%) of Time of Stay in Center Circle (male ddy mice [3]; 0.01 mg/kg) | Proportion (%) of Number of Entries into Center Circle (male ddy mice [3]; 0.01 mg/kg) | Proportion (%) of Time of Stay in Center Circle (male ddy mice [3]; 0.03 mg/kg) | Proportion (%) of Number of Entries into Center Circle (male ddy mice [3]; 0.03 mg/kg) | Proportion (%) of Time of Stay in Center Circle (male ddy mice [3]; 0.1 mg/kg) | Proportion (%) of Number of Entries into Center Circle (male ddy mice [3]; 0.1 mg/kg) | Anxiolytic activity (time of stay in center compared to control) (male ddy mice [3]; conclusion in words)
NS(=O)(=O)c1cccc2c1c([N+](=O)[O-])cc1nc(O)c(O)nc12 [AMPA Antagonist, NBQX, reference compound] | 69.8 s |  |  |  |  |  |  |  |  |  |  |  |  |  |  |  |  |  | 
NLPPLT [Peptide NLPPLT] |  | 15.7* second | 27.1* second | 23.0 s | has an antidepressive activity | 33.1% | 35.1% | 19.9% | 23.4% | 24.4% | 31.7% | has an anxiolytic activity | 0.6% | 1.7% | 0.7% | 1.6% | 0.8% | 2.1% | has an anxiolytic activity

Reference: US20240158440A1, “PEPTIDE AND COMPOSITION CONTAINING PEPTIDE AS ACTIVE INGREDIENT” (MORINAGA MILK INDUSTRY CO., LTD., priority 2021, published 2024)
